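Five compound concentrations were applied to cells in 96-well plates for 48 hours; endpoints were derived by simple linear interpolation of the resulting dose-response curve. GI50: concentration for 50% inhibition of growth. TGI marks complete inhibition of growth.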
How the values were obtained:
Assay in all cases: growth of human tumour cells (NCI), 48 h
EKVX NSCLC = tested on: EKVX NSCLC
LOX IMVI melanoma = tested on: LOX IMVI melanoma
NCI-H460 lung = tested on: NCI-H460 lung
SK-MEL-2 melanoma = tested on: SK-MEL-2 melanoma
U251 CNS = tested on: U251 CNS
UO-31 renal = tested on: UO-31 renal
NCI-H522 lung = tested on: NCI-H522 lung
SK-MEL-28 melanoma = tested on: SK-MEL-28 melanoma
HS 578T breast = tested on: HS 578T breast
MDA-MB-231 breast = tested on: MDA-MB-231 breast

SMILES	TGI (EKVX NSCLC) [µM]	TGI (LOX IMVI melanoma) [µM]	TGI (NCI-H460 lung) [µM]	TGI (SK-MEL-2 melanoma) [µM]	TGI (U251 CNS) [µM]	TGI (UO-31 renal) [µM]	TGI (NCI-H522 lung) [µM]	TGI (SK-MEL-28 melanoma) [µM]	GI50 (HS 578T breast) [µM]	TGI (HS 578T breast) [µM]	GI50 (LOX IMVI melanoma) [µM]	GI50 (MDA-MB-231 breast) [µM]	TGI (MDA-MB-231 breast) [µM]	GI50 (NCI-H460 lung) [µM]	GI50 (NCI-H522 lung) [µM]	GI50 (SK-MEL-2 melanoma) [µM]	GI50 (SK-MEL-28 melanoma) [µM]	GI50 (U251 CNS) [µM]	GI50 (UO-31 renal) [µM]	GI50 (EKVX NSCLC) [µM]
Cc1ccc(Sc2cc([N+](=O)[O-])cc(Sc3ccc(C)cc3)c2Sc2ccc(C)cc2)cc1	> 100	> 100	> 100	> 100	> 100	> 100	–	–	–	–	–	–	–	–	–	–	–	–	–	–
COc1ccc(/C=C\c2cc(OC)c(OC(C)=O)c(OC)c2)cc1	> 100	–	–	58.8	23.1	50.1	39.7	26.2	–	–	–	–	–	–	–	–	–	–	–	–
CCCCCCCCCCCC(=O)[O][Sn]([CH2]CCC)([CH2]CCC)[CH2]CCC	–	0.0712	0.156	0.13	0.125	0.0849	0.116	0.179	0.0549	0.296	0.0259	0.0317	0.113	0.0438	0.0409	0.0555	0.0649	0.0442	0.0347	–
O=C1OC(/C=C/c2ccccc2)C(=O)C1=O (stereo unspecified)	> 100	–	> 100	> 100	> 100	> 100	> 100	> 100	–	–	–	–	–	–	–	–	–	–	–	–
O=C(c1ccccc1)C(c1ccccc1)C1(O)C(=O)Nc2ccc(Br)cc21 (stereo unspecified)	> 100	–	> 100	> 100	> 100	> 100	59.6	> 100	–	–	–	–	–	–	–	–	–	–	–	–
COc1cccc(-c2nn(C)c3sc(C(=O)NCCN4CCN(c5ccccc5F)CC4)cc23)c1	–	> 100	> 100	> 100	59.5	47.8	> 100	33.4	26.2	> 100	13.4	3.87	62.4	14.8	18.8	33.9	11.1	7.14	4.56	–
COc1cccc(/C=N/[N-]C(N)=O)c1[O-].[Cu+2].c1ccncc1	65.5	36.5	31.9	58.5	32.2	44.3	34.6	33.9	–	–	–	–	–	–	–	–	–	–	–	–
CCn1cc(C(=O)O)c(=O)c2cc(F)c(N3CCNCC3)nc21	> 100	> 100	> 100	> 100	> 100	> 100	> 100	> 100	–	–	–	–	–	–	–	–	–	–	–	–
CC(=O)c1ccc(-c2ccc(C(C)=O)s2)s1	> 100	> 100	> 100	> 100	> 100	> 100	> 100	3.24	–	–	–	–	–	–	–	–	–	–	–	–
OC(c1cc2c(Cl)cc(Cl)cc2c2cc(C(F)(F)F)ccc12)C1CCCCN1 (stereo unspecified)	–	–	3.4	4.12	–	2.99	3.22	3.62	1.59	3.72	–	1.48	3.24	1.7	1.55	2.27	1.96	–	1.41	–
O=C1C2Cc3ccccc3CN2C(=O)N1CCN1CCOCC1 (stereo unspecified)	–	> 100	> 100	> 100	> 100	> 100	> 100	> 100	–	–	–	–	–	–	–	–	–	–	–	–
COc1ccc2c(c1)[n+](=O)c(C(=O)C/C(=N\NC(=O)C[N+](C)(C)C)C(=O)Nc1cc(Cl)ccc1Cl)c(C)n2O	> 100	> 100	> 100	> 100	> 100	> 100	> 100	> 100	–	–	–	–	–	–	–	–	–	–	–	–
Cn1c(=O)ccc2cc(C(=O)c3ccccc3)ccc21	> 100	> 100	> 100	> 100	> 100	–	82.7	> 100	–	–	–	–	–	–	–	–	–	–	–	–
C=C1[C@@H]2CCC(C)(C)[C@H]1CCC(=O)[C@@H]2C(=O)OC	> 100	> 100	> 100	> 100	> 100	> 100	–	> 100	–	–	–	–	–	–	–	–	–	–	–	–
CCN(CC)[C@@H]1c2cc3c(cc2C(c2cc(OC)c(O)c(OC)c2)C2C(=O)CO[C@@H]21)OCO3 (stereo partly specified)	> 100	> 100	> 100	> 100	> 100	> 100	> 100	> 100	–	–	–	–	–	–	–	–	–	–	–	–
COc1cc(/C=C/C(=O)c2ccc(SC)cc2)cc(OC)c1OC	29.4	–	32.6	31.6	12	23	23.8	32.5	12.3	37	–	4.46	17.2	15	8.82	17	16.9	3.27	10.8	14.9
CCCCCCCCCCCCCCCc1nc(SCC(=O)O)n[nH]1	> 100	> 100	> 100	> 100	81.2	> 100	> 100	> 100	–	–	–	–	–	–	–	–	–	–	–	–
C[C@]12CC[C@H](O)CC1CCC[C@@H]2O (stereo partly specified)	> 100	> 100	> 100	> 100	> 100	> 100	> 100	> 100	–	–	–	–	–	–	–	–	–	–	–	–
CC1(C)OC(=O)C(c2ccsc2)C(=O)O1	> 100	> 100	> 100	> 100	> 100	> 100	> 100	> 100	–	–	–	–	–	–	–	–	–	–	–	–
O=c1c2ccc(Br)cc2nc(-c2ccccc2)n1NC1OC(CO)C(O)C(O)C1O (stereo unspecified)	> 100	–	> 100	> 100	> 100	> 100	> 100	> 100	–	–	–	–	–	–	–	–	–	–	–	–
OC1OC2COC(c3ccccc3)OC2C(O)C1O (stereo unspecified)	> 100	> 100	> 100	> 100	> 100	> 100	> 100	–	–	–	–	–	–	–	–	–	–	–	–	–

SMILES	TGI (EKVX NSCLC) [µM]	TGI (LOX IMVI melanoma) [µM]	TGI (NCI-H460 lung) [µM]	TGI (SK-MEL-2 melanoma) [µM]	TGI (U251 CNS) [µM]	TGI (UO-31 renal) [µM]	TGI (NCI-H522 lung) [µM]	TGI (SK-MEL-28 melanoma) [µM]	GI50 (HS 578T breast) [µM]	TGI (HS 578T breast) [µM]	GI50 (LOX IMVI melanoma) [µM]	GI50 (MDA-MB-231 breast) [µM]	TGI (MDA-MB-231 breast) [µM]	GI50 (NCI-H460 lung) [µM]	GI50 (NCI-H522 lung) [µM]	GI50 (SK-MEL-2 melanoma) [µM]	GI50 (SK-MEL-28 melanoma) [µM]	GI50 (U251 CNS) [µM]	GI50 (UO-31 renal) [µM]	GI50 (EKVX NSCLC) [µM]
Fc1cccc(C2SCc3nc4ccccc4n32)c1 (stereo unspecified)	> 100	–	> 100	> 100	–	> 100	96.1	> 10	–	–	–	–	–	–	–	–	–	–	–	–
Cc1cc2c(C=O)[nH]nc2c(C#N)c1C	> 100	> 100	> 100	> 100	> 100	> 100	22.7	> 100	–	–	–	–	–	–	–	–	–	–	–	–
Nc1c(-c2ccc(-c3c(N)[n+]([O-])c4ccccc4[n+]3[O-])cc2)[n+]([O-])c2ccccc2[n+]1[O-]	79.9	25.6	37.3	28.9	39.6	32.6	3.65	20.9	–	–	–	–	–	–	–	–	–	–	–	–
CC(=O)Oc1cc(OC(C)=O)c(OC(C)=O)c2c1CC1C(=O)C3(CCc4ccccc43)C(=O)C1C2 (stereo unspecified)	37.6	26.2	28.3	–	29.2	36.6	–	36.5	–	–	–	–	–	–	–	–	–	–	–	–
COc1ccc2c(c1)cn1c3ccc(OC)cc3[nH]c(=O)c21	1.76	1.78	–	1.66	1.25	1.77	0.15	2.15	–	–	< 0.0206	< 0.0188	0.27	–	< 0.0134	0.0574	< 0.0285	< 0.0172	< 0.0169	< 0.0256
CC(=O)NC1C(OCc2ccccc2)OC(COC(=O)CCCCCCCCCCNC(=O)CCNc2ccc([N+](=O)[O-])c3[nH]c4ccc(O)cc4c(=O)c23)C(O)C1OC(C)C(=O)N[C@H](C(=O)N[C@H](CCC(=O)O)C(N)=O)C(C)C (stereo partly specified)	> 100	89.2	> 100	> 100	> 100	> 100	40.4	> 100	–	–	–	–	–	–	–	–	–	–	–	–
O=C1OC(=O)C2C1C1(c3ccccc3)OC2(c2ccccc2)c2c(Br)c(Br)c(Br)c(Br)c21 (stereo unspecified)	> 100	> 100	> 100	> 100	> 100	> 100	> 100	–	–	–	–	–	–	–	–	–	–	–	–	–
OCC1C2C=CC(O2)[C@H]1CO (stereo partly specified)	> 100	> 100	> 100	–	> 100	> 100	> 100	> 100	–	–	–	–	–	–	–	–	–	–	–	–
C=C(C=O)[C@@H]1CC=C(C=O)CC1	67.6	–	> 77.2	92.5	6.71	> 76	> 100	5.87	3.36	42.4	–	6.88	20.1	13.8	37.8	25.6	2.43	2.4	5.3	14.5
COC(=O)C1=CCS(=O)(=O)C1	> 100	> 100	> 100	> 100	–	> 100	–	> 100	–	–	–	–	–	–	–	–	–	–	–	–
O=c1cc(/C=C/c2ccccc2)c2ccc(O/C(=C\c3ccccc3)c3nc4ccccc4c(=O)o3)cc2o1	> 100	> 100	> 100	77.7	> 100	–	–	34.5	–	–	–	–	–	–	–	–	–	–	–	–
CCC1(O)CC(c2ccccc2)N(C)C(c2ccccc2)C1 (stereo unspecified)	> 100	> 100	> 100	> 100	> 100	> 100	> 100	> 100	–	–	–	–	–	–	–	–	–	–	–	–
OC1/C(=C/c2ccccc2)CNC/C1=C\c1ccccc1 (stereo unspecified)	> 100	> 100	> 100	–	> 100	> 100	> 100	> 100	–	–	–	–	–	–	–	–	–	–	–	–
Cc1cc(=O)[nH]c2c1C(=O)C(=O)C=C2	> 100	–	74	> 100	63.5	> 100	> 100	> 100	40.4	> 100	–	21.2	45.2	27.1	> 100	> 100	> 100	23.8	77.3	54
Nc1c(S(=O)(=O)O)cc2c(c1Cl)C(=O)c1ccccc1C2=O	> 100	> 100	> 100	–	> 100	> 100	> 100	> 100	> 100	> 100	> 100	> 100	> 100	> 100	> 100	–	> 100	> 100	> 100	> 100
NCCCSCC(=O)O	> 100	–	–	> 100	> 100	> 100	> 100	> 100	–	–	–	–	–	–	–	–	–	–	–	–
Cc1nc(N(C)C)nc(-c2cccc(-c3ccn(CCN(C)C)n3)c2)c1C	–	> 20	> 20	> 20	> 20	> 20	> 20	> 20	12.7	> 20	> 20	> 20	> 20	> 20	> 20	> 20	> 20	> 20	9.63	–
COc1ccc2c(C(=O)NCCCCCC(=O)O)cc3cc4c(cc3c2c1)OCO4	> 100	> 100	> 100	–	> 100	–	–	> 100	> 100	> 100	> 100	99.5	> 100	> 100	–	–	> 100	> 100	–	> 100
Cn1cc(C2=C(c3cn(CCCN/C(N)=N\[N+](=O)[O-])c4ccccc34)C(=O)NC2=O)c2ccccc21	–	21.6	20.6	2.23	15.4	24.7	9.99	18.5	1.42	14.5	0.949	3.8	16.5	5.9	2.44	0.614	3.38	2.05	8.71	–
COc1cc(C2C(C(=O)Nc3ccccc3C)=C(C)NC(C)=C2C(=O)Nc2ccccc2C)ccc1O	> 100	–	> 100	> 100	> 100	> 100	> 100	> 100	–	–	–	–	–	–	–	–	–	–	–	–
C=CCOc1ccc2c(c1)CC[C@@H]1[C@@H]2CC[C@]2(C)C(=O)/C(=N/O)C[C@@H]12	–	8.08	22.1	10.4	> 51	39.6	17.4	> 75.1	1.93	11.4	2.49	1.85	5.09	4.71	5.59	3.08	> 46.5	9.8	2.39	–
